PMC9783868, “Indoline-5-Sulfonamides: A Role of the Core in Inhibition of Cancer-Related Carbonic Anhydrases, Antiproliferative Activity and Circumventing of Multidrug Resistance” (Pharmaceuticals, 2022)
Like-named read-outs stand apart in the source and are kept apart here.

Key:
GLUT1 = test: Immunoblotting of hypoxia-induced protein expression in A431 cells; type: cell-based, human; settings: hypoxia 24 h
Protocol: We wondered whether compound 4f affected CA IX expression or whether its activity was limited to inhibiting the enzyme activity reported above (Table 1). To induce CA IX expression, cells were placed in hypoxia for 24 h, and then protein expression was analyzed by immunoblotting. Because the data on the expression of hypoxia-related proteins in the literature are highly inconsistent, we introduced additional controls. Antibodies to hypoxia-regulated and “non-hypoxic” proteins were used. The expression of kinase Akt, which is not regulated directly by hypoxia/HIF-1α, was not altered under hypoxia conditions (Figure 5F). […] Thus, lead compound 4f not only blocks the enzyme activity of CA IX, but also causes partial inhibition of hypoxia-induced CA IX expression in skin cancer cells.
A431 cells were seeded on 100 mm dishes (Corning, Corning, NY, USA), and after 24 h growth, the compound 4f was added to a fresh medium. To prepare cell extracts, A431 cells were twice washed in phosphate buffer and incubated for 10 min on ice in the modified lysis buffer containing 50 mM Tris-HCl, pH 7.5, 0.5% Igepal CA-630, 150 mM NaCl, 1 mM EDTA, 1 mM DTT, 1 mM PMSF, 0.1 mM sodium orthovanadate and aprotinin, leupeptin and pepstatin (1 µg/mL each) as described earlier in the work. The protein content was determined by the Bradford method.
A431 cell lysates were separated in 10% SDS-PAGE under reducing conditions, transferred to a nitrocellulose membrane (GE HealthCare, Chicago, IL, USA), and processed according to a standard protocol. Akt, GLUT1, PD-L1, and CA IX antibodies were obtained from Cell Signaling Technology (Danvers, MA, USA); the antibodies against GAPDH (Cell Signaling Technology) were added to standardize loading. Goat anti-rabbit IgGs (Jackson ImmunoResearch, West Grove, PA, USA) conjugated to horseradish peroxidase were used as secondary antibodies. Signals were detected using the ECL reagent as described in Mruk and Cheng’s protocol and an ImageQuant LAS4000 system (GE HealthCare).

MCF7 cells = test: Antiproliferative activity, MTT test; type: cell-based; settings: Homo sapiens, MTT assay after 72 h exposure
Protocol: A series of synthesized indoline-5-sulfonamides was tested on the MCF7 cancer cell line under normoxia and hypoxia using the MTT test.
The MDR subline K562/4 [77] (kind gift of Dr. Alexander Shtil, Blokhin N.N. National Medical Research Center of Oncology) was obtained by stepwise selection of K562 cells for survival under continuous exposure to Dox. This subline expresses the MDR1 gene and functional P-gp and is characterized by a high resistance index for Dox. […] Cells in the logarithmic phase of growth were used in the experiments. The growth inhibitory activity of compounds was assessed by the MTT test based on the metabolism of the MTT reagent (3-[4,5-dimethylthiazol-2-yl]-2,5-diphenyltetrazolium bromide) (Applichem) in living cells, with modifications as described previously in [49]. Compounds at different concentrations in 100 μL of the appropriate medium were added, and the cells were grown for 72 h. The hypoxia (1% O2) conditions were simulated in Binder multigas incubator, as described in [49]. After incubation with compounds, the medium was removed, the MTT reagent that was dissolved in the medium was added to the final concentration of 0.2 mg/mL to each well, and the incubation was performed for 2 h. Then the cell supernatants were removed, and purple formazan crystals were dissolved in 100% DMSO (350 μL per well). Culture plates were gently shaken, and the absorbance was measured at 571 nm with a reference wavelength of 630 nm on a MultiScan reader (ThermoFisher, Waltham, MA, USA). The viability of the cells was expressed as a percentage of the control. Dose-response curves were analyzed by regression analysis using sigmoid curves (Log(concentration) vs. normalized absorbance).
All results were reported as means ± SD. One-way analysis of variance was used for the analysis of data. Differences were defined as significant at p < 0.05. GraphPad Prism7 (GraphPad Software, San Diego, CA, USA) was used for the determination of the half-maximal inhibitory concentration (IC50) values.

K562/4 cells = test: Reversal of chemoresistance to Dox, MTT test; type: cell-based, human
Source text: Earlier, Kopecka and colleagues have shown that CA XII can interact with P-gp and influence its activity. Subsequently, silencing or inhibition of CA XII by chemical agents may restore the sensitivity to Dox of resistant K562 and other tumor cells. Given the potent inhibition of 4f against CA XII and the activity of 4e against K562, we examined their ability to reverse the chemoresistance of K562/4 with P-gp to Dox.
The MCF7 human breast, A431 human skin cancer cells and K562 (ATCC CCL-243) chronic myelogenous leukemia cells were obtained from the ATCC collection. The MDR subline K562/4 [77] (kind gift of Dr. Alexander Shtil, Blokhin N.N. National Medical Research Center of Oncology) was obtained by stepwise selection of K562 cells for survival under continuous exposure to Dox. This subline expresses the MDR1 gene and functional P-gp and is characterized by a high resistance index for Dox. The MCF7 and A431 cells were cultured in standard 4.5 g/L glucose DMEM medium (Gibco) supplemented with 10% FCS (HyClone), 2 mM L-glutamine, 50 U/mL penicillin, 50 µg/mL streptomycin (PanEco), 100 µg/mL sodium pyruvate (Santa Cruz) at 37 °C, 5% CO2 and 80–85% humidity in NuAire incubator. Suspension myelogenous leukemia cells (K562, K562/4) were propagated in RPMI-1640 (PanEco) with 5% FCS (HyClone), 2 mM L-glutamine, 100 U/mL penicillin, and 100 µg/mL streptomycin at 37 °C, 5% CO2, and 80–85% humidity in Binder incubator. Cells in the logarithmic phase of growth were used in the experiments. The growth inhibitory activity of compounds was assessed by the MTT test based on the metabolism of the MTT reagent (3-[4,5-dimethylthiazol-2-yl]-2,5-diphenyltetrazolium bromide) (Applichem) in living cells, with modifications as described previously in [49]. Compounds at different concentrations in 100 μL of the appropriate medium were added, and the cells were grown for 72 h. The hypoxia (1% O2) conditions were simulated in Binder multigas incubator, as described in [49]. After incubation with compounds, the medium was removed, the MTT reagent that was dissolved in the medium was added to the final concentration of 0.2 mg/mL to each well, and the incubation was performed for 2 h. Then the cell supernatants were removed, and purple formazan crystals were dissolved in 100% DMSO (350 μL per well). Culture plates were gently shaken, and the absorbance was measured at 571 nm with a reference wavelength of 630 nm on a MultiScan reader (ThermoFisher, Waltham, MA, USA). The viability of the cells was expressed as a percentage of the control. Dose-response curves were analyzed by regression analysis using sigmoid curves (Log(concentration) vs. normalized absorbance).
Figure 6 Susceptibility of resistant K562/4 line to combinations of Dox (25 µM) with indoline-5-sulfonamides 4e and 4f. […]

melting point: > 250 °C
IC50 (MCF7 cells; hypoxia (1% O2), read-out: IC50 against MCF7 Cells, Hypoxia): 12.9 ± 1.2 µM
IC50 (MCF7 cells; normoxia, read-out: IC50 against MCF7 Cells, Normoxia): 24.5 ± 1.9 µM
SMILES: NS(=O)(=O)c1ccc2c(c1)CCN2C(=O)c1cccc(Cl)c1 [Compound 4f, 1-(3-Chlorobenzoyl)indoline-5-sulfonamide]
GLUT1 expression in A431 cells (GLUT1): did not change
effect of combination with Dox on viable K562/4 cells (K562/4 cells; combination with Dox (25 µM)): decline of viable K562/4 cells
cytotoxic activity against MDR subline K562/4 as monoagent (K562/4 cells; monoagent): low cytotoxic activity
